Data on 2 substances can be found in EP0536177B1, “THROMBIN INHIBITORS BASED ON THE AMINO ACID SEQUENCE OF HIRUDIN” (MAJESTY (HER) IN RIGHT OF CANADA as represented by THE …, priority 1990, dated 1991).

One data set relates to rats. Kind of data set: Antithrombotic activity in the arteriovenous shunt model. It is filed as in vivo, rat. To be noted: dose which causes a prolongation of the time until occlusion of the shunt by 15 min, 5 min after intravenous administration. How it is done: The rat anaesthetized with urethane is fixed in supine position on a temperature-controlled heating plate. The right carotid artery and the left jugular vein are catheterized with short polyethylene catheters (Portex, PE 50). The catheters are filled with physiological saline solution and clamped. The two ends of the catheters are connected with a 2-cm glass capillary (internal diameter 1.0 mm) acting as a thrombogenic surface, 5 min after intravenous administration of the test substance or its solvent (control) the clamps occluding the arteriovenous shunt are opened. The blood flowing through the shunt leads to a rapid rise in temperature of the glass capillary from room temperature to body temperature. The temperature of the capillary serves as an indicator for the patency of the shunt. The temperature is measured by means of a NiCrNi-thermo-couple.
Antithrombotic effect of P79 compared to recombinant hirudin in the arteriovenous shunt model in rats 5 min. after intravenous administration (n - number of animals used. Results are shown in Table II below. TABLE II

Data set [1] in a line: Stability of polypeptides in plasma against proteolysis. The data set is classed as in vitro ADME. To be noted: incubation at 37°C in reconstituted normal human plasma with thromboplastin and calcium chloride, pH 7.8 (Figure 3). The procedure:
The peptides of this invention were evaluated for in vitro plasma stability against proteolysis.
600 µg of peptide was mixed with 250 µl of reconstituted normal human plasma, 250 µl of thromboplastin, 600 µg of calcium chloride and 50 mM NaHPO4 buffer ph 7.8 to a final volume of 900 µl.
The mixture was incubated at 37°C and 100 µl aliquots were removed at designated time intervals. 20 µl of 10% trichloroacetic acid was added to individual aliquot and centrifuged at 12 X K for 10 minutes. The supernatant was injected on a C18 analytical column and chromatographed by standard elution procedure (i.e. at 60% 0.1% TFA/H2O to 0.1 TFA in CH3CN).

The next data set deals with T1, human α-thrombin (Homo sapiens, UniProt P00734).
T1 construct: the enzyme (human or bovine α-thrombin 0.4 nM)
Kind of data set: Amidolytic (fluorogenic) assay of thrombin activity, hydrolysis of Tosyl-Gly-Pro-Arg-AMC. The data set is classed as biochemical. To be noted: mean of three determinations ± SEM, ni: not inhibited. The procedure: Thrombin-catalyzed hydrolysis of Tos-Gly-Pro-Arg-pNA was monitored at 405 nm on a Varian Cary 2000 double beam spectrophotometer using substrate concentrations of 2.5, 3.5, 5 and 10 µM in a final volume of 1mL. The hydrolytic reactions were performed at 25°C in 0.1 M Tris-HCl buffer, pH 7.8, containing 0.1 M NaCl and 0.1% PEG 6000. The reactions were initiated by addition of the substrate dissolved in 0.1 M Tris-HCl buffer, pH 7.8 to a preincubated solution of enzyme (0.4 or 0.04 nM) and variable concentrations of inhibitor dissolved in the same buffer. Initial velocities were recorded and Ki values were determined graphically by weighted linear regression of Dixon plots in the case of competitive inhibition, or by the method of Baici (Baici, 1981) for hyperbolic inhibition. Fluorogenic assays were conducted using the same conditions and instrument as above operating in the fluorescence mode in the Ratio (λex=383 nm, λem=455 nm). Fluorescence intensities were calibrated with 7-amino-4-methyl coumarin solution of known concentration. The specificity of the synthetic peptides of the present invention for human α-thrombin may also be determined by comparing their relative inhibitory activities towards both human α-thrombin and bovine α-thrombin and trypsin by comparing K1 values obtained in the amidolytic assay of thrombin activity.

The target in another data set is T2, bovine α-thrombin (Bos taurus, UniProt P00735).
T2 construct: the enzyme (human or bovine α-thrombin 0.4 nM)
The data set is described as above. The data set is classed as biochemical. The conditions noted are these: mean of three determinations ± SEM, ni: not inhibited.

Where no end group is shown, it is not given here.

Procedure for bovine α-thrombin: The hydrolytic reactions were performed at 25°C in 0.1 M Tris-HCl buffer, pH 7.8, containing 0.1 M NaCl and 0.1% PEG 6000. The reactions were initiated by addition of the substrate dissolved in 0.1 M Tris-HCl buffer, pH 7.8 to a preincubated solution of enzyme (0.4 or 0.04 nM) and variable concentrations of inhibitor dissolved in the same buffer. […] Fluorescence intensities were calibrated with 7-amino-4-methyl coumarin solution of known concentration.

In the data set with rats, “[D-Phe^45,Arg^47,ψ(COCH2)CH2CH2CO^47]hirudin^45-65 [P79]” gave an ED15 of 0.42 mg/kg. In addition, the proteolysis result in data set [1] is recorded as “minimal or no proteolysis”.
By Ki is commonly meant a measure of affinity in units of concentration, obtained from inhibition or displacement. A high value points to a looser hold on the target. TPKPQSHNDGD [P51, hirudin^45-55]: the Ki came to 110 ± 3 nM at human α-thrombin and 720 ± 130 nM on bovine α-thrombin.
